Laboratory results: US6492137B1, “Response element compositions and assays employing same” (The Salk Institute for Biological Studies, priority 1989, dated 2002)

Tests used:
VDR = target: T1, VDR (Homo sapiens, UniProt P11473); assay: ΔSV-CAT reporter cotransfection assay in CV-1 cells with VDR expression plasmid, ±VD3; assay type: cell-based; design: expressed in transfected cells; host or cells: CV-1 (monkey kidney); conditions: VD3 100 nM
T1 sequence (P11473 1-427): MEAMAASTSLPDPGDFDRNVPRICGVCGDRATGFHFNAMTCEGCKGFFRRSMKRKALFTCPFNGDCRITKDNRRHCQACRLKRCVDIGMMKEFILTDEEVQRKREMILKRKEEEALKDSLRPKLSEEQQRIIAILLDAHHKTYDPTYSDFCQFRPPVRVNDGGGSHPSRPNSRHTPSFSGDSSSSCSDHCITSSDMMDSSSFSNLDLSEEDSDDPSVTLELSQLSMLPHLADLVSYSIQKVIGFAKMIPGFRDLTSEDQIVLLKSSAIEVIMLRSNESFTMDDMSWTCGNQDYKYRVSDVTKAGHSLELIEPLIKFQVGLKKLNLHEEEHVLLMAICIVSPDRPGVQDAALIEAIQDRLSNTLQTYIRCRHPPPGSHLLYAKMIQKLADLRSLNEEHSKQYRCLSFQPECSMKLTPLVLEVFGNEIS
Description: Receptor expression plasmids used in the following cotransfection assays have been described previously (pRShTRβ [see Thompson, et al., Proc. Natl. Acad. Sci. U.S.A. 86: 3494-3498 (1989)]; pRShRARα [see Giguere, et al., Nature 330: 624-629 (1987)]; pRShRARβ and pRshRARγ [see Ishikawa, et al., Mol. Endocrinol, 4: 837-844 (1990)]; and pRShVDR, [Schule, et al., Cell 61: 497-504 (1990)]. A basal reporter plasmid ΔSV-CAT was constructed by replacing the TK promoter in TK-CAT [Damm, et al., Nature 339: 593-597 (1989)] with the SphI-HindIII fragment of the SV40 early promoter. All of the recombinant CAT reporter plasmids used herein harbor a single copy of the indicated oligonucleotides at the unique HindIII site upstream of the SV40 promoter. Identity of the inserted oligonucleotides was confirmed by sequencing. To improve production of receptor proteins in COS cells, a new eukaryotic expression vector pCMX was prepared by modifying the plasmid CDM8 [Seed, B., Nature 329: 840-842 (1987)]. The CDM8 was cut with MluI and StuI in order to release the DNA fragment encoding the CMV/T7 promoter, SV40 small t intron/poly A signal, polyoma virus enhancer/origin, and SV40 enhancer/origin. The resulting fragment was ligated to a larger fragment of PvuII-digested PUC19. An internal deletion was introduced between unique BamHI and BclI sites present in the DCM8 portion. […]

[1] = tested on: F9 teratocarcinoma stem cells; assay: CAT reporter transfection into RA responsive F9 teratocarcinoma stem cells; assay type: cell-based, mouse; conditions: RA 1 μM, 24 hours; no transfected receptor
Description: For cotransfection assays, a monkey kidney cell line CV-1 was kept in Dulbecco's modified Eagle's medium (DMEM) supplemented with 10% charcoal-resin double split calf bovine serum. Transfections were performed via calcium-phosphate precipitation method as described by Umesono, et al. in Cell 57: 1139-1146 (1989), with 0.5 μg of a pRS receptor expression plasmid, 1.0 μg of a reporter CAT plasmid, 5 μg of pRAS-βGAL [Umesono, et al., Cell 57: 1139-1146 (1989)] as an internal control, and 8.5 μg of carrier plasmid pUC19. The cells were transfected for 8 hours; after washing the DNA precipitates, the cells were then incubated for an additional 36 hours with or without the ligand (T3, 100 nM; RA, 1 μM; 1,25-(OH)2 vitamin D3, 100 nM). Cell extracts were prepared for βGAL and CAT assays, as described by Umesono, et al., supra. Transfection of F9 teratocarcinoma cells was carried out employing a similar method except the cells were incubated for 12 hours in the presence of the DNA precipitates, and the RA was added at 1 μM for another 24 hours before harvesting the cells. 2, 5, and 4 μg of the reporter, pRAS-βGAL, and pUC19 were used, respectively.
Similarly, when the same set of reporters as in FIG. 4 were transfected into F9 cells, only MHC-R (5-nucleotide spacer) and TREp are potent RAREs. In contrast, its RARE antecedents (MHC-N, MHC+1, MHC-T) are inert.

Substance | vitamin D3 response (in words) (VDR) | function as RARE in F9 cells [1]
GDR-4: identical to DR-4 except half-site changed to AGAACA, a GRE half-site (SEQ ID NO:28) (AGCTTCAGAACACAGGAGAACAGAGAGCT; DNA, backbone not given here; double-stranded DNA response element with agct overhangs, cloned into reporter) | completely inactive | 
TREp: optimized palindromic rat growth hormone TRE (SEQ ID NO:10) (AGCTTCAGGTCATGACCTGAGAGCT; DNA, backbone not given here; double-stranded response element with agct overhangs, cloned into reporter plasmid) [reference compound] |  | potent RAREs
GDR-3: identical to DR-3 except half-site changed to AGAACA, a GRE half-site (SEQ ID NO:26) (AGCTTCAGAACAAGGAGAACAGAGAGCT; DNA, backbone not given here; double-stranded DNA response element with agct overhangs, cloned into reporter) | completely inactive | 
MHC-N: 23-nucleotide core of the wild-type sequence (MHC-TRE) (SEQ ID NO:14) (AGCTGGAGGTGACAGGAGGACAGCAAGCT; DNA, backbone not given here; further chemistry not fully specified) |  | inert
